Laboratory results taken from patent US20230233580A1, “USE OF OXYGENATED CHOLESTEROL SULFATES FOR CANCERS AND NON-CANCEROUS TRANSFORMATIONS RELATED TO EPSTEIN-BARR VIRUS” (priority 2020, published 2023).
Values joined by “and” are separate entries in the source; they are usually repeats but may differ in a detail not shown here. Identical values can stand only once.

Legend:
Huh-7 cells = assay: Whole genome bisulfite sequencing (WGBS), promoter 5mCpG demethylation; format: cell-based, human; details: Huh-7, HG 72 h, 25 μM 4 h
Method: Each sample, 2 μg, was sent to EpigenDx, Inc. (Hopkinton, Mass.) for analysis of global methylation bisulfite sequencing. The same samples, 6 μg, were sent to Novogene Co., Ltd (Tianjin, China) for analysis of whole genome bisulfite sequencing (WGBS). Total RNA was isolated using the Promega SV total RNA isolation system (Madison, Wis.) with DNase treatment. Each sample, 2 μg, was used for the first-strand cDNA synthesis as recommended by the manufacturer (Invitrogen, Carlsbad, Calif.). Real-time RT-PCR was performed using SYBR Green as the indicator on ABI 7500 Fast Real-Time PCR System (Applied Biosystems, Foster City, Calif.). Amplifications of j-actin or GAPDH were used as internal controls. Relative messenger RNA (mRNA) expression was quantified with the comparative cycle threshold (Ct) method using the primer set shown in Table 1.1 and was expressed as 2^−ΔΔct.
Each sample, 5.2 μg of genomic DNA spiked with 26 ng lambda DNA, was fragmented by sonication to 200-300 bp with Covaris S220, followed by end repair and adenylation. Cytosine-methylated barcodes were ligated to sonicated DNA per the manufacturer's instructions. These DNA fragments were treated twice with bisulfite using EZ DNA Methylation-Gold™ Kit™ (Zymo Research) before the resulting single-strand DNA fragments were PCR amplified using KAPA HiFi Hot Start Uracil and Ready Mix (2×). Library concentration was quantified by Qubit® 2.0 Flurometer (Life Technologies, CA, USA) and quantitative PCR, and the insert size was assayed on an Agilent Bioanalyzer 2100 system.
The library preparations were sequenced on an Illumina Hiseq 2500/4000 or Novaseq™ platform and 125 bp/150 bp paired-end reads were generated. Image analysis and base calling were performed with Illumina CASAVA pipeline. Trimmomatic (Trimmomatic-0.36) software was used for quality control. Bismark software (version 0.16.3; Krueger F, 2011) was used to perform alignments of bisulfite-treated reads to a reference genome (−X 700-dovetail). DSS software (23) was used to identify differentially methylated regions (DMRs). KOBAS software was used to test the statistical enrichment of DMR related genes in the Kyoto Encyclopedia of Genes and Genomes (KEGG) pathways.
Each sample (6 μg) was used for analysis of the whole genome bisulfite sequencing (WGBS).

[1] = Metabolite profiling of plasma, urine, feces, intravenous dose; format: in vivo, rats; details: intravenous 10 mg/kg
Method: Plasma pools were made from Group 1 rats at the 0.083, 0.25, 0.5, and 1-hour collection time points.
Urine pools were prepared for Group 2 at 0 to 6 and 6 to 12 hours post-dose.
Feces pools were prepared for Group 2 at 0 to 12, 12 to 24, and 24 to 48 hours post-dose.

With `C[C@H](CCCC(C)(C)O)[C@H]1CC[C@H]2[C@@H]3CC=C4C[C@@H](OS(=O)(=O)O)CC[C@]4(C)[C@H]3CC[C@]12C` [25HC3S, 5-Cholesten-3β, 25-diol 3-sulfate] the “DMR (Methylation %) 25HC3S-Vehicle, DRD5P2 promoter” value (Huh-7 cells; Chr1 1.43E+08) was −34.73%, the “DMR (Methylation %) 25HC3S-Vehicle, ITPKB promoter” value (Huh-7 cells; Chr1 2.27E+08) was −25.12% and the “DMR (Methylation %) 25HC3S-Vehicle, MAP4K4 promoter” value (Huh-7 cells; Chr2 1.02E+08) was −13.63%. For the same compound, the “DMR (Methylation %) 25HC3S-Vehicle, ROCK2 promoter” value (Huh-7 cells; Chr2 11344628-11344733) was −23.14%, the “DMR (Methylation %) 25HC3S-Vehicle, PPP1CB promoter” value (Huh-7 cells; Chr2 28751716-28751798) was −10.93% and the “DMR (Methylation %) 25HC3S-Vehicle, ADCY5 promoter” value (Huh-7 cells; Chr3 1.23E+08) was −30.44%. For the same compound, the “DMR (Methylation %) 25HC3S-Vehicle, HRH1 promoter” value (Huh-7 cells; Chr3 11154292-11154354) was −25.48%, the “DMR (Methylation %) 25HC3S-Vehicle, PLCD1 promoter” value (Huh-7 cells; Chr3 38029863-38030016) was −24.31% and the “DMR (Methylation %) 25HC3S-Vehicle, DUSP7 promoter” value (Huh-7 cells; Chr3 52056416-52056485) was −40.47%. For the same compound, the “DMR (Methylation %) 25HC3S-Vehicle, CACNA1D promoter” value (Huh-7 cells; Chr3 53494583-53494705) was −20.46%, the “DMR (Methylation %) 25HC3S-Vehicle, RAPGEF2 promoter” value (Huh-7 cells; Chr4 1.59E+08) was −36.05% and the “DMR (Methylation %) 25HC3S-Vehicle, PDE4D promoter” value (Huh-7 cells; Chr5 59893498-59893718) was −27.84%. The “DMR (Methylation %) 25HC3S-Vehicle, AFDN promoter” value (Huh-7 cells; Chr6 1.68E+08) was −30.68%, the “DMR (Methylation %) 25HC3S-Vehicle, AL671762.1 promoter” value (Huh-7 cells; Chr6 31828019-31828149) was −27.17% and the “DMR (Methylation %) 25HC3S-Vehicle, CREB5 promoter” value (Huh-7 cells; Chr7 28489448-28489601) was −29.31%. The “DMR (Methylation %) 25HC3S-Vehicle, GLI3 promoter” value (Huh-7 cells; Chr7 42228171-42228223) was −19.62%, the “DMR (Methylation %) 25HC3S-Vehicle, ADCY1 promoter” value (Huh-7 cells; Chr7 45574500-45574591) was −14.76% and the “DMR (Methylation %) 25HC3S-Vehicle, VAV2 promoter” value (Huh-7 cells; Chr9 1.34E+08) was −33.11%. For the same compound, the “DMR (Methylation %) 25HC3S-Vehicle, GNAQ promoter” value (Huh-7 cells; Chr9 78032198-78032440) was −11.92%, the “DMR (Methylation %) 25HC3S-Vehicle, PTCH1 promoter” value (Huh-7 cells; Chr9 95508446-95508561) was −12.09% and the “DMR (Methylation %) 25HC3S-Vehicle, GABBR2 promoter” value (Huh-7 cells; Chr9 98708549-98708610) was −21.84%. The “DMR (Methylation %) 25HC3S-Vehicle, ADRB1 promoter” value (Huh-7 cells; Chr10 1.14E+08) was −33.1%, the “DMR (Methylation %) 25HC3S-Vehicle, CACNB2 promoter” value (Huh-7 cells; Chr10 18140401-18140547) was −21.91% and the “DMR (Methylation %) 25HC3S-Vehicle, MAPK8 promoter” value (Huh-7 cells; Chr10 48306510-48306561) was −29.24%. For the same compound, the “DMR (Methylation %) 25HC3S-Vehicle, HRAS promoter” value (Huh-7 cells; Chr11 535071-535127) was −18.85%, the “DMR (Methylation %) 25HC3S-Vehicle, DUSP8 promoter” value (Huh-7 cells; Chr11 1572973-1573032) was −30.51% and the “DMR (Methylation %) 25HC3S-Vehicle, BAD promoter” value (Huh-7 cells; Chr11 64286088-64286179) was −42.33%. The “DMR (Methylation %) 25HC3S-Vehicle, RELA promoter” value (Huh-7 cells; Chr11 65661914-65662035) was −35.1%, the “DMR (Methylation %) 25HC3S-Vehicle, CACNA1C-AS1 promoter” value (Huh-7 cells; Chr12 2691335-2691438) was −20.97% and the “DMR (Methylation %) 25HC3S-Vehicle, NTF3 promoter” value (Huh-7 cells; Chr12 5432796-5432882) was −33.48%. For the same compound, the “DMR (Methylation %) 25HC3S-Vehicle, EDNRB promoter” value (Huh-7 cells; Chr13 77919496-77919743) was −34.09%, the “DMR (Methylation %) 25HC3S-Vehicle, ABCC4 promoter” value (Huh-7 cells; Chr13 95301634-95301736) was −33.06% and the “DMR (Methylation %) 25HC3S-Vehicle, ADCY4 promoter” value (Huh-7 cells; Chr14 24334570-24334719) was −18.63%. The “DMR (Methylation %) 25HC3S-Vehicle, MAX promoter” value (Huh-7 cells; Chr14 65102273-65102358) was −31.75%, the “DMR (Methylation %) 25HC3S-Vehicle, SLC8A3 promoter” value (Huh-7 cells; Chr14 70188747-70189089) was −28.51% and the “DMR (Methylation %) 25HC3S-Vehicle, TGFB3 promoter” value (Huh-7 cells; Chr14 75982395-75982557) was −23.74%. For the same compound, the “DMR (Methylation %) 25HC3S-Vehicle, CACNA1H promoter” value (Huh-7 cells; Chr16 1194928-1195015) was −26.48%, the “DMR (Methylation %) 25HC3S-Vehicle, GRIN2A promoter” value (Huh-7 cells; Chr16 10183302-10183414) was −19.63% and the “DMR (Methylation %) 25HC3S-Vehicle, GRIN2C promoter” value (Huh-7 cells; Chr17 74861739-74861853) was −37.6% and −37.64%. The “DMR (Methylation %) 25HC3S-Vehicle, SPHK1 promoter” value (Huh-7 cells; Chr17 76383180-76383291) was −24.74%, the “DMR (Methylation %) 25HC3S-Vehicle, GRIN3B promoter” value (Huh-7 cells; Chr19 1000331-1000405) was −34.67% and the “DMR (Methylation %) 25HC3S-Vehicle, GADD45B promoter” value (Huh-7 cells; Chr19 2474806-2474873) was −28.6%. For the same compound, the “DMR (Methylation %) 25HC3S-Vehicle, GNA11 promoter” value (Huh-7 cells; Chr19 3094383-3094442) was −32.66%, the “DMR (Methylation %) 25HC3S-Vehicle, AC005264.2 promoter” value (Huh-7 cells; Chr19 3156392-3156457) was −15.76% and the “DMR (Methylation %) 25HC3S-Vehicle, CACNA1A promoter” value (Huh-7 cells; Chr19 13226635-13226711) was −39.91%. The “DMR (Methylation %) 25HC3S-Vehicle, CTB-186G2.1 promoter” value (Huh-7 cells; Chr19 38596260-38596495) was −34.3%, the “DMR (Methylation %) 25HC3S-Vehicle, MAP4K1 promoter” value (Huh-7 cells; Chr19 38596260-38596495) was −34.3% and the “DMR (Methylation %) 25HC3S-Vehicle, ATP1A3 promoter” value (Huh-7 cells; Chr19 41999134-41999316) was −15.75%. The “DMR (Methylation %) 25HC3S-Vehicle, GIPR promoter” value (Huh-7 cells; Chr19 45668710-45668767) was −10.04%, the “DMR (Methylation %) 25HC3S-Vehicle, CACNG8 promoter” value (Huh-7 cells; Chr19 53961377-53961479) was −31.18% and the “DMR (Methylation %) 25HC3S-Vehicle, GNAS promoter” value (Huh-7 cells; Chr20 58888598-58888893) was −25.68%. For the same compound, the “DMR (Methylation %) 25HC3S-Vehicle, MAPK1 promoter” value (Huh-7 cells; Chr22 21867450-21867512) was −7.66%, the “DMR (Methylation %) 25HC3S-Vehicle, PDGFB promoter” value (Huh-7 cells; Chr22 39243967-39244084) was −30.51% and the “amount in feces, % of dose” value ([1]; 0 to 48 hours post-dose pools) was 2 % of dose. For the same compound, the “share of the exposure (AUC) to 25HC3S related radioactivity, plasma” value ([1]; up to 1 hour post-dose) was “approximately 54%”.
